The test relates to spinal nerve roots of the cauda equina. As to the kind of experiment: Compound nerve action potentials (CAPs) recorded in vitro from isolated spinal nerve roots. On the set-up: species or system rats. The settings on record: for IC50: K+ concentration read from the dose-response curves, read-out: 50% reduction of the CAP. Here is the method: Using the method as described in J. Physiol 275, (1978), pages 177-189, experiments were carried out in vitro on spinal nerve roots of the cauda equina dissected from killed rats. Compound nerve action potentials (CAPs) were recorded from the nerves which were placed in a bath incorporating stimulating and recording electrodes and analyzed with MacLab Scope. Kreb's solutions containing various potassium ion concentrations were applied for 5 minutes to an isolated central portion of the nerve between the two sets of electrodes. With all potassium salts tested, the amplitude and area of the CAPs were reduced in a dose-dependent manner by test solutions containing 8 mM K⁺ or more. "Mean INT" in the table is the mean integrated CAP, expressed as a percentage of the control response, i.e. the response obtained with Krebs' solution containing 4mM K⁺. There were no differences in the results for CAP peak amplitudes and integrated CAPs.
Wilcoxons' Sum of Ranks test was used to compare the % of control I-CAP values obtained after 5 min exposure to the different K⁺ salts at equivalent concentrations.

Setting [1] is: [K+] 8 mM, applied for 5 minutes, mean integrated CAP as percentage of control response (Krebs' solution containing 4mM K+).
Where [2] appears, read: [K+] 16 mM, applied for 5 minutes, mean integrated CAP as percentage of control response (Krebs' solution containing 4mM K+).
Where [3] appears, read: [K+] 24 mM, applied for 5 minutes, mean integrated CAP as percentage of control response (Krebs' solution containing 4mM K+).
The mark [4] stands for this setting: [K+] 32 mM, applied for 5 minutes, mean integrated CAP as percentage of control response (Krebs' solution containing 4mM K+).
[5] abbreviates: [K+] 64 mM, applied for 5 minutes, mean integrated CAP as percentage of control response (Krebs' solution containing 4mM K+).

The values that follow come from EP0657160A1, “Oral composition for desensitising sensitive teeth” (UNILEVER N.V., priority 1993, dated 1995).

Counter-ions that a name gives are not always drawn. Like-named read-outs stand apart in the source and are kept apart here.

With `[Cl-].[K+]` [KCl, potassium chloride], the IC50 was 17.8 mM. The “mean INT.(%)” value under setting [1] came out at 98%. Moreover, under setting [2], the “mean INT.(%)” value was 59%. The “mean INT.(%)” value under setting [3] amounted to 13%. In addition, the “mean INT.(%)” value under setting [4] is given as 1%. For the same compound, the “mean INT.(%)” value under setting [5] was found to be 0%.
For the compound `O=[N+]([O-])[O-].[K+]` [KNO₃, potassium nitrate], the IC50 came out at 17.4 mM. Also, the “mean INT.(%)” value under setting [1] is given as 91%. The “mean INT.(%)” value under setting [2] worked out at 54%. Besides, the “mean INT.(%)” value under setting [3] was 17%. Under setting [4], the “mean INT.(%)” value was found to be 2%. Also, the “mean INT.(%)” value under setting [5] was determined as 0%.
As for `O=C(O)C(O)C(O)C(=O)O` (stereo not shown) [K₂Tartrate, dipotassium tartrate], the “effect on CAP compared with potassium oxalate” value (16-64 mM K+, p < 0.05) is “significantly greater”. Further, the activity at 8000 µM (Rattus norvegicus, 5 min, [K+] 8 mM, applied for 5 minutes, mean integrated CAP as percentage of control response (Krebs' solution containing 4mM K+), read-out: mean INT.(%)) was 83%. The activity at 16000 µM (Rattus norvegicus, 5 min, [K+] 16 mM, applied for 5 minutes, mean integrated CAP as percentage of control response (Krebs' solution containing 4mM K+), read-out: mean INT.(%)) is 15%. The activity at 24000 µM (Rattus norvegicus, 5 min, [K+] 24 mM, applied for 5 minutes, mean integrated CAP as percentage of control response (Krebs' solution containing 4mM K+), read-out: mean INT.(%)) was found to be 2%. Where the note is “Rattus norvegicus, 5 min, [K+] 32 mM, applied for 5 minutes, mean integrated CAP as percentage of control response (Krebs' solution containing 4mM K+), read-out: mean INT.(%)”, the activity at 32000 µM was 1%. For the same compound, under “Rattus norvegicus, 5 min, [K+] 64 mM, applied for 5 minutes, mean integrated CAP as percentage of control response (Krebs' solution containing 4mM K+), read-out: mean INT.(%)”, the activity at 64000 µM was found to be 1%. Moreover, the IC50 (Rattus norvegicus) was determined as 11.6 mM.
Turning to potassium oxalate [K₂Oxalate], the IC50 was determined as 14.3 mM. The “mean INT.(%)” value under setting [1] was 84%. Moreover, the “mean INT.(%)” value under setting [2] is given as 42%. The “mean INT.(%)” value under setting [3] worked out at 11%. Also, the “mean INT.(%)” value under setting [4] turned out to be 3%. For the same compound, the “mean INT.(%)” value under setting [5] is reported as 1%.
